Measurements from patent US9567302B2, “Carbamate compounds and of making and using same” (Abide Therapeutics, Inc., priority 2012, dated 2017).

What was measured:
Type in all cases: biochemical
Set-up in all cases: from tissue
[1] = target: T1, MAGL (Mus musculus, UniProt O35678); assay: In vitro competitive ABPP, % inhibition at fixed concentration, MAGL
T1 sequence (O35678 1-303): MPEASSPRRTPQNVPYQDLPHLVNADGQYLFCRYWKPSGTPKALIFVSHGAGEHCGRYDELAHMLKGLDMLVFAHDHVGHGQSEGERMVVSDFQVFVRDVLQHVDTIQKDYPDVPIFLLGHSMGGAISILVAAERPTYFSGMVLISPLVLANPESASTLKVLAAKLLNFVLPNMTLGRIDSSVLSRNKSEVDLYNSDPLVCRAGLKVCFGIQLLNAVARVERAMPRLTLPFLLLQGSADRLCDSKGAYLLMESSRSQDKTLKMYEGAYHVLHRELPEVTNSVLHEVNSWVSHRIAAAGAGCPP
Procedure, shortened: (§1)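 Mouse brain membrane proteome or cell lysate at 1.0 mg/ml was preincubated with inhibitor for 30 min at 37° C, then labelled with FP-Rh for another 30 min. After SDS-PAGE, activity was quantified from the fluorescent intensity of the MAGL, ABHD6 and FAAH bands.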

[2] = target: T2, FAAH (Mus musculus, UniProt O08914); assay: In vitro competitive ABPP, % inhibition at fixed concentration, FAAH
T2 sequence (O08914 1-579): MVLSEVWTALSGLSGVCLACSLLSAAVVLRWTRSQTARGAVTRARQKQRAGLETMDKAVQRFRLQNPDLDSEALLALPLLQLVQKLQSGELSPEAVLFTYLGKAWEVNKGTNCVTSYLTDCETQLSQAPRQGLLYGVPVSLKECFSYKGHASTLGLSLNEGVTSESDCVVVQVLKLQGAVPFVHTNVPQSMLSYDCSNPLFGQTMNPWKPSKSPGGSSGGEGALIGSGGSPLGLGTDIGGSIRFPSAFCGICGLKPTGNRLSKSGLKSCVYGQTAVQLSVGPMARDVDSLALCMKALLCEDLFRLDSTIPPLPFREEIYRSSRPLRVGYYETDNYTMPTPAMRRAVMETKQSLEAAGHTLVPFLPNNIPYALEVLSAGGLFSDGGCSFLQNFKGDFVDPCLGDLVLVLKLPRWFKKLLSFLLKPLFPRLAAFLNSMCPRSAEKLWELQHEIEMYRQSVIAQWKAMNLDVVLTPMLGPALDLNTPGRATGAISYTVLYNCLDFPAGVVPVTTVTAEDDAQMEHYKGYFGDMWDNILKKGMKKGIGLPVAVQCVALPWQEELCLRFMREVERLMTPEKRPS
Procedure, shortened: as §1

[3] = target: T3, ABHD6 (Mus musculus, UniProt Q8R2Y0); assay: In vitro competitive ABPP, % inhibition at fixed concentration, ABHD6
T3 sequence (Q8R2Y0 1-336): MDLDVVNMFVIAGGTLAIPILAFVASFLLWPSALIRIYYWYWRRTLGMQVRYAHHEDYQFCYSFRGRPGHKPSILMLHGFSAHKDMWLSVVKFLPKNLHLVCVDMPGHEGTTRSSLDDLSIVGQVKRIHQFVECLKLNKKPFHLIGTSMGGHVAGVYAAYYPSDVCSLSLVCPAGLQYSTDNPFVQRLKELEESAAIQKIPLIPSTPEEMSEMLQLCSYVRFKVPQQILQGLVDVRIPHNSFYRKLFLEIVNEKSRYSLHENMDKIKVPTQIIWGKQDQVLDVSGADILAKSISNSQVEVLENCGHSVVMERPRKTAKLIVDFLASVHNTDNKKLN
Procedure, shortened: as §1

Structure (SMILES)	inhibition at 1 µM [1] [%]	inhibition at 1 µM [2] [%]	inhibition at 1 µM [3] [%]
Cc1ccccc1-c1ccc(CN2CCN(C(=O)ON3C(=O)CCC3=O)CC2)c(C)n1 [Example 182, 2,5-Dioxopyrrolidin-1-yl 4-{[2-methyl-6-(2-methylphenyl)pyridin-3-yl]methyl}piperazine-1-carboxylate]	25 to 75	< 25	> 75
Cc1nc(-c2ccccc2F)ccc1CN1CCN(C(=O)ON2C(=O)CCC2=O)CC1 [Example 183, 2,5-Dioxopyrrolidin-1-yl 4-{[6-(2-fluorophenyl)-2-methylpyridin-3-yl]methyl}piperazine-1-carboxylate]	25 to 75	< 25	> 75
Cc1cccc(-c2ccc(CN3CCN(C(=O)ON4C(=O)CCC4=O)CC3)c(C)n2)c1 [Example 184, 2,5-Dioxopyrrolidin-1-yl 4-{[2-methyl-6-(3-methylphenyl)pyridin-3-yl]methyl}piperazine-1-carboxylate]	> 75	< 25	25 to 75
Cc1nc(-c2cccc(F)c2)ccc1CN1CCN(C(=O)ON2C(=O)CCC2=O)CC1 [Example 185, 2,5-Dioxopyrrolidin-1-yl 4-{[6-(3-fluorophenyl)-2-methylpyridin-3-yl]methyl}piperazine-1-carboxylate]	> 75	< 25	> 75
CC(C)c1cc(N2CCCC2)ccc1CN1CCN(C(=O)ON2C(=O)CCC2=O)CC1 [Example 186, 2,5-Dioxopyrrolidin-1-yl 4-{[2-(propan-2-yl)-4-(pyrrolidin-1-yl)phenyl]methyl}piperazine-1-carboxylate]	25 to 75	< 25	25 to 75
CC(C)c1cc(N2CCOCC2)ccc1CN1CCN(C(=O)ON2C(=O)CCC2=O)CC1 [Example 187, 2,5-Dioxopyrrolidin-1-yl 4-{[4-(morpholin-4-yl)-2-(propan-2-yl)phenyl]methyl}piperazine-1-carboxylate]	25 to 75	< 25	25 to 75
O=C(ON1C(=O)CCC1=O)N1CCN(Cc2ccc(C(=O)N3CCOCC3)cc2Cl)CC1 [Example 192, 2,5-dioxopyrrolidin-1-yl 4-{[2-chloro-4-(morpholine-4-carbonyl)phenyl]methyl}piperazine-1-carboxylate]	25 to 75	< 25	25 to 75
O=C(ON1C(=O)CCC1=O)N1CCN(Cc2ccc(C(=O)N3CCC3)cc2Cl)CC1 [Example 194, 2,5-Dioxopyrrolidin-1-yl 4-{[4-(azetidine-1-carbonyl)-2-chlorophenyl]methyl}piperazine-1-carboxylate]	25 to 75	< 25	25 to 75
O=C(ON1C(=O)CCC1=O)N1CCN(Cc2ccc(Cl)cc2C(=O)N2CCOCC2)CC1 [Example 195, 2,5-Dioxopyrrolidin-1-yl 4-{[4-chloro-2-(morpholine-4-carbonyl)phenyl]methyl}piperazine-1-carboxylate]	< 25	< 25	< 25
O=C(ON1C(=O)CCC1=O)N1CCN(Cc2cccc(Cl)c2C(=O)N2CCOCC2)CC1 [Example 198, 2,5-Dioxopyrrolidin-1-yl 4-{[3-chloro-2-(morpholine-4-carbonyl)phenyl]methyl}piperazine-1-carboxylate]	< 25	< 25	< 25
Cc1ccc(C(=O)N2CCOCC2)c(CN2CCN(C(=O)ON3C(=O)CCC3=O)CC2)c1 [Example 201, 2,5-Dioxopyrrolidin-1-yl 4-{[5-methyl-2-(morpholine-4-carbonyl)phenyl]methyl}piperazine-1-carboxylate]	< 25	< 25	< 25
O=C(ON1C(=O)CCC1=O)N1CCN(Cc2cc(C(F)(F)F)ccc2C(=O)N2CCOCC2)CC1 [Example 203, 2,5-Dioxopyrrolidin-1-yl 4-{[2-(morpholine-4-carbonyl)-5-(trifluoromethyl)phenyl]methyl}piperazine-1-carboxylate]	< 25	< 25	< 25
Cc1c(CN2CCN(C(=O)ON3C(=O)CCC3=O)CC2)cccc1C(=O)N1CCOCC1 [Example 205, 2,5-Dioxopyrrolidin-1-yl 4-{[2-methyl-3-(morpholine-4-carbonyl)phenyl]methyl}piperazine-1-carboxylate]	< 25	< 25	> 75
Cc1c(CN2CCN(C(=O)ON3C(=O)CCC3=O)CC2)cccc1C(=O)N1CCC1 [Example 207, 2,5-Dioxopyrrolidin-1-yl 4-{[3-(azetidine-1-carbonyl)-2-methylphenyl]methyl}piperazine-1-carboxylate]	25 to 75	< 25	> 75

Other lines, results leading:

inhibition at 1 µM [1] [%]	inhibition at 1 µM [2] [%]	inhibition at 1 µM [3] [%]	Structure (SMILES)
25 to 75	< 25	< 25	O=C(ON1C(=O)CCC1=O)N1CCN(Cc2cccc(Cl)c2C(=O)N2CCCC2)CC1 [Example 190, 2,5-Dioxopyrrolidin-1-yl 4-{[3-chloro-2-(pyrrolidine-1-carbonyl)phenyl]methyl}piperazine-1-carboxylate]
25 to 75	< 25	25 to 75	O=C(ON1C(=O)CCC1=O)N1CCN(Cc2ccc(C(=O)N3CCCC3)cc2Cl)CC1 [Example 193, 2,5-Dioxopyrrolidin-1-yl 4-{[2-chloro-4-(pyrrolidine-1-carbonyl)phenyl]methyl}piperazine-1-carboxylate]
25 to 75	< 25	< 25	O=C(ON1C(=O)CCC1=O)N1CCN(Cc2ccc(Cl)cc2C(=O)N2CCCC2)CC1 [Example 196, 2,5-Dioxopyrrolidin-1-yl 4-{[4-chloro-2-(pyrrolidine-1-carbonyl)phenyl]methyl}piperazine-1-carboxylate]
< 25	< 25	< 25	O=C(ON1C(=O)CCC1=O)N1CCN(Cc2ccc(Cl)cc2C(=O)N2CCC2)CC1 [Example 197, 2,5-Dioxopyrrolidin-1-yl 4-{[2-(azetidine-1-carbonyl)-4-chlorophenyl]methyl}piperazine-1-carboxylate]
< 25	< 25	25 to 75	O=C(ON1C(=O)CCC1=O)N1CCN(Cc2cc(Cl)ccc2C(=O)N2CCOCC2)CC1 [Example 199, 2,5-Dioxopyrrolidin-1-yl 4-{[5-chloro-2-(morpholine-4-carbonyl)phenyl]methyl}piperazine-1-carboxylate]
< 25	< 25	< 25	O=C(ON1C(=O)CCC1=O)N1CCN(Cc2cc(Cl)ccc2C(=O)N2CCCC2)CC1 [Example 200, 2,5-Dioxopyrrolidin-1-yl 4-{[5-chloro-2-(pyrrolidine-1-carbonyl)phenyl]methyl}piperazine-1-carboxylate]
< 25	< 25	< 25	Cc1ccc(C(=O)N2CCCC2)c(CN2CCN(C(=O)ON3C(=O)CCC3=O)CC2)c1 [Example 202, 2,5-Dioxopyrrolidin-1-yl 4-{[5-methyl-2-(pyrrolidine-1-carbonyl)phenyl]methyl}piperazine-1-carboxylate]
< 25	< 25	< 25	O=C(ON1C(=O)CCC1=O)N1CCN(Cc2cc(C(F)(F)F)ccc2C(=O)N2CCCC2)CC1 [Example 204, 2,5-Dioxopyrrolidin-1-yl 4-{[2-(pyrrolidine-1-carbonyl)-5-(trifluoromethyl)phenyl]methyl}piperazine-1-carboxylate]
25 to 75	< 25	> 75	Cc1c(CN2CCN(C(=O)ON3C(=O)CCC3=O)CC2)cccc1C(=O)N1CCCC1 [Example 206, 2,5-Dioxopyrrolidin-1-yl 4-{[2-methyl-3-(pyrrolidine-1-carbonyl)phenyl]methyl}piperazine-1-carboxylate]
